Results taken from patent publication US9452986B2, “6-heteroaryloxy- or 6-aryloxy-quinoline-2-carboxamides and method of use” (AbbVie Inc., priority 2014, dated 2016).

Experiments:
recombinant human Nav1.7 = recombinant human Nav1.7 (Homo sapiens (Human), UniProt Q15858); assay: FRET-based membrane potential assay, recombinant human sodium channel Nav1.7; type: cell-based; details: read-out: FRET-Membrane Potential Nav1.7 IC50
Method in brief: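 Channel activation used veratridine at its EC80, set by a dilution curve each experiment, together with Leiurus scorpion venom, added 3 min after compound. Membrane-potential ratio signals from FLIPR Tetra in HEPES-buffered HBSS were fitted to a four-parameter Hill equation for percent inhibition and IC50.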

recombinant human Nav1.8 = recombinant human Nav1.8 (Homo sapiens (Human), UniProt Q9Y5Y9); assay: FRET-based membrane potential assay, recombinant human sodium channel Nav1.8; type: cell-based
osteoarthritic rats = assay: Osteoarthritic (OA) pain induced by sodium monoiodoacetate (MIA), hind limb grip force; type: in vivo, rat; details: Rattus norvegicus, 480 h, OA dose 30 mg/kg; rat, 20 days following MIA injection, hind limb grip force; read-out: OA MPE
Method in brief: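 Activity-induced pain was read as maximum compressive hind limb grip force, two sequential trials normalized to body weight, 20 days after intra-articular MIA (3 mg/rat) in male Sprague Dawley rats. Randomized, blinded dosing; effect expressed as return toward naïve-animal response relative to vehicle.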

[1] = tested on: spinal nerve ligated rats; assay: Rat spinal nerve ligation (SNL) model of neuropathic pain, paw withdrawal threshold; type: in vivo; details: SNL dose 100 mg/kg; rat, von Frey paw withdrawal threshold; read-out: SNL MPE
From the text: Rat Spinal Nerve Ligation (SNL) Model of Neuropathic Pain.
The male Sprague Dawley rats (Charles River Laboratories, Wilmington, Mass.), weighing 150-175 g at the time of surgery, were placed under isoflurane anesthesia and a 1.5 cm incision was made dorsal to the lumbosacral plexus. The paraspinal muscles (left side) were separated from the spinous processes, the left L5 and L6 spinal nerves isolated, and tightly ligated with 5-0 silk suture distal to the dorsal root ganglion. Care was taken to avoid ligating the L4 spinal nerve. Following spinal nerve ligation, a minimum of 7 days of recovery and no more than 3 weeks was allowed prior to the behavioral testing (mechanical sensitivity). Only rats with threshold scores ≦4.5 g were considered allodynic and utilized in pharmacological experiments.
Mechanical sensitivity was measured using calibrated von Frey filaments (Stoelting, Wood Dale, Ill.). […] The von Frey filaments were presented perpendicularly to the plantar surface of the selected hind paw, and then held in this position for approximately 8 seconds with enough force to cause a slight bend in the filament. Positive responses included an abrupt withdrawal of the hind paw from the stimulus, or flinching behavior immediately following removal of the stimulus. […] A percent maximal possible effect (% MPE) of testing compound was calculated according to the formula: (Log [compound−treated threshold]−Log [vehicle−treated threshold])/(Log [maximum threshold]−Log [vehicle−treated threshold])×100%, where the maximum threshold was equal to 15 g.
The animals were housed in Association for Assessment and Accreditation of Laboratory Animal Care (AAALAC) approved facilities at AbbVie Inc. in a temperature-regulated environment under a controlled 12-hour light-dark cycle, with lights on at 6:00 a.m. Food and water were available ad libitum at all times except during testing. All testing was done following procedures outlined in protocols approved by AbbVie Inc.s' Institutional Animal Care and Use Committee.

recombinant human Nav1.8, sequence (Q9Y5Y9 whole entry): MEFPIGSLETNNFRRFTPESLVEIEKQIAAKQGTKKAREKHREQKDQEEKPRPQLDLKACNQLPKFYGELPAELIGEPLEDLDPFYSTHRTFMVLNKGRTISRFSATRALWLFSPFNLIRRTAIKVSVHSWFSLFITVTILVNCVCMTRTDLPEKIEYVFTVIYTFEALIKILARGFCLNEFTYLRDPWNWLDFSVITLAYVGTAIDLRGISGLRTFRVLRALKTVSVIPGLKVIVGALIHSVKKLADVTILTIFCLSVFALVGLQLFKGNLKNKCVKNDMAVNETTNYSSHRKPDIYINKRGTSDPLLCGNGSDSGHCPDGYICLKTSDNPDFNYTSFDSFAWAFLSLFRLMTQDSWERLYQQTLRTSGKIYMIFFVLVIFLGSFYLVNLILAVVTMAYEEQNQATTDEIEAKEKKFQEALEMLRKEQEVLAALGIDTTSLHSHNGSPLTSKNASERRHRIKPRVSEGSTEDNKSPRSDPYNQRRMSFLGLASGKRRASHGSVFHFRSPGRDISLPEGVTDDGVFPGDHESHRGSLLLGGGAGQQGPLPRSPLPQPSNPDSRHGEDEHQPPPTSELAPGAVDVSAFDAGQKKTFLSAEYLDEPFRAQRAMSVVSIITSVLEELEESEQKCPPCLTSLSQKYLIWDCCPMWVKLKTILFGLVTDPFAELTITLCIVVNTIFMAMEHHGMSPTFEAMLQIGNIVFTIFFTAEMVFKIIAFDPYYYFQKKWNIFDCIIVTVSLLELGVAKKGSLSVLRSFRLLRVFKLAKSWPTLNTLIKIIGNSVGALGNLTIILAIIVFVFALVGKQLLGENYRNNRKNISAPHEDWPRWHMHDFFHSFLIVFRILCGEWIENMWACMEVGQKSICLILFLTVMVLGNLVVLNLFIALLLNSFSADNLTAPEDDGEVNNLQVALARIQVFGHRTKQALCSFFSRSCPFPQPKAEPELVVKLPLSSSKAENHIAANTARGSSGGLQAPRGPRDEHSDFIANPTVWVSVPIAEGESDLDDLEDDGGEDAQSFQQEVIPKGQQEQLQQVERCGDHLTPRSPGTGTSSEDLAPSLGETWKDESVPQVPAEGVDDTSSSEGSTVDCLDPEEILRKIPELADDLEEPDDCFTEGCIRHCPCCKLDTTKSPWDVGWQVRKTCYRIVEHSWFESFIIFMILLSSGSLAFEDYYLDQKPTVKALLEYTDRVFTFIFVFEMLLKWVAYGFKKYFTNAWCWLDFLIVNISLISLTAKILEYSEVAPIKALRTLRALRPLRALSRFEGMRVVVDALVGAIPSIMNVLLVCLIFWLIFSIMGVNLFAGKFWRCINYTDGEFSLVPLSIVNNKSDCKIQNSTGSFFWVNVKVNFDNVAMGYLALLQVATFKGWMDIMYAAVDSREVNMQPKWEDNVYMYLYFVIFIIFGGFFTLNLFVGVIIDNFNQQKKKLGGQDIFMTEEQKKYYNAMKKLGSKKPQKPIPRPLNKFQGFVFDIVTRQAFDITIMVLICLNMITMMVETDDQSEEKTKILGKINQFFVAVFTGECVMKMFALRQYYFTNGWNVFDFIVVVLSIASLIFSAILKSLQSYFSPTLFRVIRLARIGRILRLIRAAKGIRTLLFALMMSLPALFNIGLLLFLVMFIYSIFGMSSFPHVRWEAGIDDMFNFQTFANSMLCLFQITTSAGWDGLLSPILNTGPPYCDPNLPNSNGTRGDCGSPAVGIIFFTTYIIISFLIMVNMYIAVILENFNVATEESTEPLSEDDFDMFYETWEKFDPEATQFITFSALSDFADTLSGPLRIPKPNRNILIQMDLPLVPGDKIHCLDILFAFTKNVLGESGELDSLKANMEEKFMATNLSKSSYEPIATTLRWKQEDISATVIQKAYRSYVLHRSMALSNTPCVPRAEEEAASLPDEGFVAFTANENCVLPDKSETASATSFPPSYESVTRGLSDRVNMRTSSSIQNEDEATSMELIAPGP
recombinant human Nav1.7, sequence (Q15858 whole entry): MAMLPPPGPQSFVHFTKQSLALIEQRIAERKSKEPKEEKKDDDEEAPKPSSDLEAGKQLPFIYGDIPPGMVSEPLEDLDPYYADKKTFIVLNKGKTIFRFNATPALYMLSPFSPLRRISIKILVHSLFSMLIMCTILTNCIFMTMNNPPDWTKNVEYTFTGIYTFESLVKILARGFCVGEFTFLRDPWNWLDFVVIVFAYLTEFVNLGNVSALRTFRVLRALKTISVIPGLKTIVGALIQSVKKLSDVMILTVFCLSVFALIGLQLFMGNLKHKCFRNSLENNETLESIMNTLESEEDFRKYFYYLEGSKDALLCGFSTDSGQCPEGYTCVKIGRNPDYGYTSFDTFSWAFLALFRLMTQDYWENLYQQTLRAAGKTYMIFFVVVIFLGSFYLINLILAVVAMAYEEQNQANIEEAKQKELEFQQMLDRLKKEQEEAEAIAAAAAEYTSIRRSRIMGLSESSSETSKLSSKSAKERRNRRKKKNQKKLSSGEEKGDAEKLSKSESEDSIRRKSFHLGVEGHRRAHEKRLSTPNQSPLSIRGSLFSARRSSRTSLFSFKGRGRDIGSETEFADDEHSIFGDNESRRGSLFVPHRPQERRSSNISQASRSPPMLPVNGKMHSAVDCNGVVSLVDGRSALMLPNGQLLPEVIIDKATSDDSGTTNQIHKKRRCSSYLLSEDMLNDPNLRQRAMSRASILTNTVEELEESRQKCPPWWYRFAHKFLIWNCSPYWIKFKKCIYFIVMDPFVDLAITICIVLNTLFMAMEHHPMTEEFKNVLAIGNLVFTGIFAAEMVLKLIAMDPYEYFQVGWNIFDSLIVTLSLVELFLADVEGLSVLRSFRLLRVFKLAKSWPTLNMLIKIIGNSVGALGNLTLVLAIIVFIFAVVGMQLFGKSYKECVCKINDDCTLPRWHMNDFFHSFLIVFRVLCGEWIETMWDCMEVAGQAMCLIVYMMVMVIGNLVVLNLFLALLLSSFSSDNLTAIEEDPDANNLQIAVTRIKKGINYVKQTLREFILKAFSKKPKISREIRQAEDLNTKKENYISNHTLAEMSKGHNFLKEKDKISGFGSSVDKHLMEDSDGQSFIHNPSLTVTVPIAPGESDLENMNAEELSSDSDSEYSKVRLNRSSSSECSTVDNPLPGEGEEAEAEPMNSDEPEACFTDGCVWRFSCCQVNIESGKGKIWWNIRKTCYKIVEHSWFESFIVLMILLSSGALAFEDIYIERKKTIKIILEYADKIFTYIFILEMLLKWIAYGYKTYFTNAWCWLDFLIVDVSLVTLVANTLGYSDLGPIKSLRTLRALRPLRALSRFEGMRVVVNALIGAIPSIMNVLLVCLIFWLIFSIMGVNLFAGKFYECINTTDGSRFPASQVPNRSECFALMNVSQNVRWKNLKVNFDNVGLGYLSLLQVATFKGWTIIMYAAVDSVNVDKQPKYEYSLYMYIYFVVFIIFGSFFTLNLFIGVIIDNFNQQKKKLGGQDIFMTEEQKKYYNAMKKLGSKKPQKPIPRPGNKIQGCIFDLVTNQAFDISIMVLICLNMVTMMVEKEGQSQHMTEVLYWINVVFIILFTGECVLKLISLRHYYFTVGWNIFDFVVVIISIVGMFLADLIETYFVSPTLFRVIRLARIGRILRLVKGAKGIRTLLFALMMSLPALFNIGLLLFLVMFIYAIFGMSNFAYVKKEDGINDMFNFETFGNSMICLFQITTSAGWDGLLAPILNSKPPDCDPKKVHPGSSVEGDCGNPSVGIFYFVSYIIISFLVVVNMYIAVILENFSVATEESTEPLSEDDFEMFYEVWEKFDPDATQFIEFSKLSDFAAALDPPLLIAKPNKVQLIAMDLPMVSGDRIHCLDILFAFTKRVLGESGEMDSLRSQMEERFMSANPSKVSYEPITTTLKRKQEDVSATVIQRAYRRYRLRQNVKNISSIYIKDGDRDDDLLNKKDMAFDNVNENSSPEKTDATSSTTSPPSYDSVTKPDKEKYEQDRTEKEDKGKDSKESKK

CN(C)C(=O)CNC(=O)c1ccc2cc(Oc3ccc(C(F)(F)F)cn3)ccc2n1 [Example 33, N-[2-(dimethylamino)-2-oxoethyl]-6-{[5-(trifluoromethyl)pyridin-2-yl]oxy}quinoline-2-carboxamide] showed an IC50 (recombinant human Nav1.7) of 471 nM, an IC50 (recombinant human Nav1.8) of 740 nM and an inhibition in vivo at 30 mg/kg (osteoarthritic rats) of 61%. The inhibition in vivo at 100 mg/kg [1] was 50%.
